Results: BindingDB's records for doi:10.1111/cbdd.12675 (Quaid-I-Azam University, 2016)

Biological target: Urease (Canavalia ensiformis, UniProt P07374)
Experiment: Urease Inhibition Assay
Settings: pH 8.2
Experimental: The urease inhibitory activity of synthesized sulfonamides (3a-j) was determined by measuring the amount of ammonia produced by the indophenols method described byWeatherburn (27,28). The reaction mixtures, comprising 20 µL of enzyme (Jack bean urease, 5 U/mL) and 20 µL of test compounds in 50 µL buffer (100 mM urea, 0.01 MK2HPO4, 1 mM EDTA and 0.01 M […], pH 8.2), were incubated for 10 min at 37 °C in 96-well plate. Briefly, 40 µL each of phenol reagents (1%, w/v phenol and0.005%, w/v sodium nitroprusside) and 70 µL of alkali reagent (0.5%, w/v NaOH and 0.1% active chloride NaOCl) were added to each well. […] All reactions were performed in triplicate.

Chain of Urease (P07374 whole entry): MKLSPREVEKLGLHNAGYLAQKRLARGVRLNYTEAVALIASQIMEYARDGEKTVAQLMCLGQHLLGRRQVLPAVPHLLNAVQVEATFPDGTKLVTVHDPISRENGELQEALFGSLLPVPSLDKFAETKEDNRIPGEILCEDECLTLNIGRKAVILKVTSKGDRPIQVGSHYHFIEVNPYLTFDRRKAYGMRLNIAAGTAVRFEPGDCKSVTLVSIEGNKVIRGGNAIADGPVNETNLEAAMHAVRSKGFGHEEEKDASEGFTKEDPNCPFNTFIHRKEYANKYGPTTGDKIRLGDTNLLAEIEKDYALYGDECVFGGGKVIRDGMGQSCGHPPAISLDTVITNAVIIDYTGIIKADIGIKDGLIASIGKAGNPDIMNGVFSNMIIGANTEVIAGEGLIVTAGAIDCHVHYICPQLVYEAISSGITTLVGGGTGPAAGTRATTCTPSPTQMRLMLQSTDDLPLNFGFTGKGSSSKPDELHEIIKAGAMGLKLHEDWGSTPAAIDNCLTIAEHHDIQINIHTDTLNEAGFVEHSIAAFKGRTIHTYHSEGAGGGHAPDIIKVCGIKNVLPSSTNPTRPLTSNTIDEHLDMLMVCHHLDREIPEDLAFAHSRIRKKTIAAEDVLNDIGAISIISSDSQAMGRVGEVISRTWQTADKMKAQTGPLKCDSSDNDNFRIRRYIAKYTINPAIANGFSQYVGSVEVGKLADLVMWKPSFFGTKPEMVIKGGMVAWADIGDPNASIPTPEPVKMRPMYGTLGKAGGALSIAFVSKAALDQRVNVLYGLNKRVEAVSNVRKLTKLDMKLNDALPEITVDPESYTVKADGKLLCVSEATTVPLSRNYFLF

Cc1cs/c(=N\C(=O)c2ccccc2)n1-c1ccc(S(N)(=O)=O)cc1 [(Z)-N-(3-(4-aminosulfonylphenyl)-4-methylthiazol-2(3H)-ylidene) benzamide (3a)] showed an IC50 of 96 nM.
For Cc1cs/c(=N\C(=O)c2ccco2)n1-c1ccc(S(N)(=O)=O)cc1 [(Z)-N-(3-(4-aminosulfonylphenyl)-4-methylthiazol-2(3H)-ylidene) furan-2-carboxamide (3j)], the IC50 was 83 nM.
Work on Cc1cs/c(=N\C(=O)c2ccc([N+](=O)[O-])cc2Cl)n1-c1ccc(S(N)(=O)=O)cc1 [(Z)-N-(3-(4-aminosulfonylphenyl)-4-methylthiazol-2(3H)-ylidene)-2-chloro-4-nitrobenzamide (3i)] yielded an IC50 of 58 nM.
Work on Cc1ccccc1C(=O)/N=c1\scc(C)n1-c1ccc(S(N)(=O)=O)cc1 [(Z)-N-(3-(4-aminosulfonylphenyl)-4-methylthiazol-2(3H)-ylidene)-2-methylbenzamide (3b)] yielded an IC50 of 87 nM.
Cc1cs/c(=N\C(=O)c2ccccc2[N+](=O)[O-])n1-c1ccc(S(N)(=O)=O)cc1 [(Z)-N-(3-(4-aminosulfonylphenyl)-4-methylthiazol-2(3H)-ylidene)-2-nitrobenzamide (3f)] was tested, and the IC50 was 350 nM.
Compound Cc1cs/c(=N\C(=O)c2cccc(F)c2)n1-c1ccc(S(N)(=O)=O)cc1 [(Z)-N-(3-(4-aminosulfonylphenyl)-4-methylthiazol-2(3H)-ylidene)-3-fluorobenzamide (3h)] has an IC50 of 64 nM.
In the case of COc1cccc(C(=O)/N=c2\scc(C)n2-c2ccc(S(N)(=O)=O)cc2)c1 [(Z)-N-(3-(4-aminosulfonylphenyl)-4-methylthiazol-2(3H)-ylidene)-3-methoxybenzamide (3g)], the IC50 is reported as 81 nM.
In the case of Cc1cccc(C(=O)/N=c2\scc(C)n2-c2ccc(S(N)(=O)=O)cc2)c1 [(Z)-N-(3-(4-aminosulfonylphenyl)-4-methylthiazol-2(3H)-ylidene)-3-methylbenzamide (3c)], the IC50 is reported as 87 nM.
Cc1ccc(C(=O)/N=c2\scc(C)n2-c2ccc(S(N)(=O)=O)cc2)cc1 [(Z)-N-(3-(4-aminosulfonylphenyl)-4-methylthiazol-2(3H)-ylidene)-4-methylbenzamide (3d)] gave an IC50 of 72 nM.
Cc1cs/c(=N\C(=O)c2ccc([N+](=O)[O-])cc2)n1-c1ccc(S(N)(=O)=O)cc1 [(Z)-N-(3-(4-aminosulfonylphenyl)-4-methylthiazol-2(3H)-ylidene)-4-nitrobenzamide (3e)] was tested, and the IC50 was 83 nM.
